Source: patent publication US8841321B2, “Quinoline derivatives as antibacterial agents” (Janssen Pharmaceutica NV, priority 2005, dated 2014)
≈ marks a conversion by molar mass, not a printed value.

Columns and labels:
[1] = test system: methicillin resistant S. aureus (MRSA); assay: Time kill assay (broth microdilution method); format: cell-based, Staphylococcus aureus
Excerpt: (§1) Bactericidal or bacteriostatic activity of the compounds may be determined in a time kill assay using the broth microdilution method*. In a time kill assay on Staphylococcus aureus and methicillin resistant S. aureus (MRSA), the starting inoculum of S. aurues and MRSA is 10^6 CPU/ml in Muller Hinton broth. The antibacterial compounds are used at the concentration of 0.1 to 10 times the MIC (i.e. IC90 as determined in microtitre plate assay). Wells receiving no antibacterial agent constitute the culture growth control. The plates containing the microorganism and the test compounds are incubated at 37° C. After 0, 4, 24, and 48 hrs of incubation samples are removed for determination of viable counts by serial dilution (10^−1 to 10^−6) in sterile PBS and plating (200 μl) on Mueller Hinton agar. The plates are incubated at 37° C. for 24 hours and the number of colonies are determined. Killing curves can be constructed by plotting the log10CFU per ml versus time. A bactericidal effect is commonly defined as 3-log10 decrease in number of CFU per ml as compared to untreated inoculum. The potential carryover effect of the drugs is removed by serial dilutions and counting the colonies at highest dilution used for plating. No carryover effect is observed at the dilution of 10^−2 used for plating. […] Antimicrob. Agents Chemother. 40, 839-845 (1996).

[2] = test system: SPY 8668 (Streptococcus pyogens (ATCC8668)); assay: Microtitre plate assay, IC90 determination; format: cell-based; details: for IC90 (μg/ml) SPY 8668: Streptococcus pyogens (ATCC8668); for IC90: Streptococcus, ATCC8668, Streptococcus pyogens (ATCC8668), read-out: IC90 (μg/ml) SPY 8668
Staphylococcus aureus = assay: Time kill assay (broth microdilution method); format: cell-based; details: S. aureus; for bactericidal activity in time kill assay: observed at 1 and 10 times MIC90
Excerpt: as §1

[3] = test system: PAE 27853 (Pseudomonas aeruginosa (ATCC27853)); assay: Microtitre plate assay, IC90 determination; format: cell-based; details: for IC90 (μg/ml) PAE 27853: Pseudomonas aeruginosa (ATCC27853); for IC90: Pseudomonas aeruginosa, ATCC27853, Pseudomonas aeruginosa (ATCC27853), read-out: IC90 (μg/ml) PAE 27853
[4] = test system: EFA 29212 (Enterococcus faecalis (ATCC29212)); assay: Microtitre plate assay, IC90 determination; format: cell-based; details: for IC90 (μg/ml) EFA 29212: Enterococcus faecalis (ATCC29212); for IC90: Enterococcus faecalis, ATCC29212, Enterococcus faecalis (ATCC29212), read-out: IC90 (μg/ml) EFA 29212
[5] = test system: STA 29213 (Staphylococcus aureus (ATCC29213)); assay: Microtitre plate assay, IC90 determination; format: cell-based; details: for IC90 (μg/ml) STA 29213: Staphylococcus aureus (ATCC29213); for IC90: Staphylococcus aureus, ATCC29213, Staphylococcus aureus (ATCC29213), read-out: IC90 (μg/ml) STA 29213
Method in brief: (§2)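 Growth-inhibition endpoint: resazurin added 3 h after inoculation, plates incubated overnight, fluorescence at 530/590 nm after 24 h at 37 °C. Inocula of roughly 10–60 CFU per well in Mueller-Hinton medium; compounds titrated five-fold. IC90 reported as μg/ml.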

[6] = test system: SPN 6305 (Streptococcus pneumoniae (ATCC6305)); assay: Microtitre plate assay, IC90 determination; format: cell-based; details: for IC90 (μg/ml) SPN 6305: Streptococcus pneumoniae (ATCC6305); for IC90: Streptococcus pneumoniae, ATCC6305, Streptococcus pneumoniae (ATCC6305), read-out: IC90 (μg/ml) SPN 6305
Method in brief: as §2

[7] = test system: STA RMETH (methicilline resistant Staphylococcus aureus (MRSA), a clinical isolate from the University of Antwerp); assay: Microtitre plate assay, IC90 determination; format: cell-based; details: for IC90: Staphylococcus aureus, MRSA, read-out: IC90 (μg/ml) STA RMETH
[8] = test system: BSU 43639 (Bacillus subtilis (ATCC43639)); assay: Microtitre plate assay, IC90 determination; format: cell-based; details: Bacillus subtilis (ATCC43639)
[9] = test system: LMO 49594 (Listeria monocytogenes (ATCC49594)); assay: Microtitre plate assay, IC90 determination; format: cell-based; details: Listeria monocytogenes (ATCC49594)
[10] = test system: STA 25923 (Staphylococcus aureus (ATCC25923)); assay: Microtitre plate assay, IC90 determination; format: cell-based; details: Staphylococcus aureus (ATCC25923)

SMILES | IC90 (μg/ml) SPY 8668 [2] | IC90 (μg/ml) PAE 27853 [3] | IC90 (μg/ml) EFA 29212 [4] | IC90 (μg/ml) STA 29213 [5] | IC90 (μg/ml) SPN 6305 [6] | melting point | IC90 (μg/ml) STA RMETH [7] | also measured
COc1nc2ccc(Br)cc2cc1C(c1ccccc1)C(O)(CCCCN(C)C)c1ccc2ccccc2c1 (stereo not drawn) [Compound 18] | 11.6 µg/mL (≈ 19.9 µM) | 23.2 µg/mL (≈ 39.8 µM) | 46.4 µg/mL (≈ 79.5 µM) | 46.4 µg/mL (≈ 79.5 µM) | 2.9 µg/mL (≈ 4.97 µM) |  |  | bactericidal activity in time kill assay [1]: marked bactericidal activity; MIC (1×MIC; MIC i.e. IC90 as determined in microtitre plate assay) (Staphylococcus aureus): 12 µg/mL (≈ 20.6 µM); growth of treated samples in time kill assay (Staphylococcus aureus; at 0.1 times the MIC): followed the control in growth; bactericidal activity in time kill assay (Staphylococcus aureus): bactericidal activity
CNCCCCC(O)(c1ccccc1)C(c1ccccc1)c1cc2cc(Br)ccc2nc1OC (stereo not drawn) [Compound 53] |  |  |  |  |  | 121 °C |  | IC90 [2]: 1.64 µg/mL (≈ 3.16 µM); IC90 [3]: 8.23 µg/mL (≈ 15.8 µM); IC90 [7]: 9.2 µg/mL (≈ 17.7 µM); IC90 [4]: 1.64 µg/mL (≈ 3.16 µM); IC90 [5]: 1.64 µg/mL (≈ 3.16 µM); IC90 [6]: 0.41 µg/mL (≈ 0.789 µM)
COc1nc2ccc(CO)cc2cc1C(c1ccccc1)C(O)(CCCCN(C)C)c1ccc2ccccc2c1 (stereo not drawn) [Compound 55] |  |  |  |  |  | 174 °C |  | IC90 [5]: 8.47 µg/mL (≈ 15.8 µM); IC90 [6]: 10.7 µg/mL (≈ 20 µM)
COc1ccc2cc(C(O)(CCCCN(C)C)C(c3ccccc3)c3cc4c(Br)cccc4nc3OC)ccc2c1 (stereo not drawn) [Compound 26] | 1.9 µg/mL (≈ 3.1 µM) | 1.9 µg/mL (≈ 3.1 µM) | 1.9 µg/mL (≈ 3.1 µM) | 1.9 µg/mL (≈ 3.1 µM) | 4.3 µg/mL (≈ 7.01 µM) | 164 °C | 10.9 µg/mL (≈ 17.8 µM) | 
COc1ccc2cc(C(O)(CCCCN(C)C)C(c3ccccc3)c3cc4ccccc4nc3OC)ccc2c1 (stereo not drawn) [Compound 34] | 8.5 µg/mL (≈ 15.9 µM) | 2.7 µg/mL (≈ 5.05 µM) | 8.5 µg/mL (≈ 15.9 µM) | 3.8 µg/mL (≈ 7.11 µM) | 1.9 µg/mL (≈ 3.55 µM) | 179 °C | 10.7 µg/mL (≈ 20 µM) | 
COc1nc2ccc(-c3cccnc3)cc2cc1C(c1ccccc1)C(O)(CCCCN(C)C)c1ccccc1 (stereo not drawn) [Compound 42] |  |  |  |  |  | 203 °C |  | IC90 [6]: 53.2 µg/mL (≈ 100 µM)
COc1nc2ccc(Br)cc2cc1C(c1ccccc1)C(O)(CCCCN(C)C)c1cccnc1 (stereo not drawn) [Compound 15] |  |  |  | 53.5 µg/mL (≈ 100 µM) | 53.5 µg/mL (≈ 100 µM) | 150 °C |  | 
COc1nc2ccc(Br)cc2cc1C(c1ccccc1)C(O)(CCCCN(C)C)c1ccc2ccccc2c1 (stereo not drawn) [Compound 22] | 46.4 µg/mL (≈ 79.5 µM) | 4.1 µg/mL (≈ 7.03 µM) | 4.1 µg/mL (≈ 7.03 µM) | 9.3 µg/mL (≈ 15.9 µM) | 58.4 µg/mL (≈ 100 µM) | 166 °C | 58.4 µg/mL (≈ 100 µM) | IC90 (μg/ml) BSU 43639 [8]: 58.4 µg/mL (≈ 100 µM); IC90 (μg/ml) LMO 49594 [9]: 11.6 µg/mL (≈ 19.9 µM); IC90 (μg/ml) STA 25923 [10]: 46.4 µg/mL (≈ 79.5 µM)
COc1nc2ccc(Br)cc2cc1C(c1ccccc1)C(O)(CCCCN(C)C)c1cc(F)ccc1F (stereo not drawn) [Compound 13] |  |  |  |  | 25.4 µg/mL (≈ 44.6 µM) | 166 °C |  | 
COc1nc2ccccc2cc1C(c1ccccc1)C(O)(CCCCN(C)C)c1ccc2ccccc2c1 (stereo not drawn) [Compound 36] |  |  |  | 8.0 µg/mL (≈ 15.9 µM) | 9.0 µg/mL (≈ 17.8 µM) | 105 °C |  | 
CNCCCC(O)(c1ccc(F)cc1)C(c1ccccc1)c1cc2cc(Br)ccc2nc1OC (stereo not drawn) [Compound 68] | 1.7 µg/mL (≈ 3.25 µM) | 8.3 µg/mL (≈ 15.9 µM) | 18.6 µg/mL (≈ 35.5 µM) | 8.3 µg/mL (≈ 15.9 µM) | 1.9 µg/mL (≈ 3.63 µM) | 188 °C |  | 
COc1ccc2cc(C(O)(CCCCN(C)C)C(c3ccccc3)c3cc4ccc(Br)cc4nc3OC)ccc2c1 (stereo not drawn) [Compound 30] |  |  |  | 9.7 µg/mL (≈ 15.8 µM) | 21.8 µg/mL (≈ 35.5 µM) | 160 °C |  | 
COc1nc2ccc(Br)cc2cc1C(c1ccccc1)C(O)(CCCCN(C)C)c1cc(F)cc(F)c1 (stereo not drawn) [Compound 11] |  |  |  | 1.8 µg/mL (≈ 3.16 µM) |  | 157 °C |  | IC90 [2]: 9 µg/mL (≈ 15.8 µM); IC90 [3]: 9 µg/mL (≈ 15.8 µM); IC90 [7]: 11.4 µg/mL (≈ 20 µM); IC90 [4]: 9 µg/mL (≈ 15.8 µM); IC90 [6]: 9 µg/mL (≈ 15.8 µM)
O=C(O)c1cn(C2CC2)c2cc(N3CCNCC3)c(F)cc2c1=O [ciprofloxacin, reference compound] |  |  |  |  |  |  |  | bactericidal activity in time kill assay [1]: no bactericidal effect; bactericidal activity in time kill assay (Staphylococcus aureus): bactericidal activity
COc1nc2ccc(-c3ccco3)cc2cc1C(c1ccccc1)C(O)(CCCCN(C)C)c1ccc2ccccc2c1 (stereo not drawn) [Compound 38] |  |  |  | 4.5 µg/mL (≈ 7.88 µM) | 11.4 µg/mL (≈ 20 µM) | 182 °C | 2.3 µg/mL (≈ 4.03 µM) | IC90 [2]: 9.1 µg/mL (≈ 15.9 µM); IC90 [3]: 9.1 µg/mL (≈ 15.9 µM); IC90 [4]: 7.2 µg/mL (≈ 12.6 µM)
COc1nc2ccc(Br)cc2cc1C(c1ccccc1)C(O)(CCCCN(C)C)c1ccc2ccccc2c1 (stereo not drawn) [Compound 17] | 4.6 µg/mL (≈ 7.88 µM) | 2.3 µg/mL (≈ 3.94 µM) | 5.2 µg/mL (≈ 8.91 µM) | 9.3 µg/mL (≈ 15.9 µM) | 11.6 µg/mL (≈ 19.9 µM) | 170 °C | 10.4 µg/mL (≈ 17.8 µM) | IC90 (μg/ml) BSU 43639 [8]: 5.2 µg/mL (≈ 8.91 µM); IC90 (μg/ml) LMO 49594 [9]: 5.8 µg/mL (≈ 9.94 µM); IC90 (μg/ml) STA 25923 [10]: 2.3 µg/mL (≈ 3.94 µM)
COc1nc2ccc(Br)cc2cc1C(c1ccccc1)C(O)(CCCCN(C)C)c1ccc2c(c1)OCO2 (stereo not drawn) [Compound 9] |  |  |  | 9.1 µg/mL (≈ 15.8 µM) | 11.5 µg/mL (≈ 19.9 µM) | 98 °C |  | 
COc1nc2cccc(Br)c2cc1C(c1ccccc1)C(O)(CCCCN(C)C)c1ccc2ccccc2c1 (stereo not drawn) [Compound 28] |  |  |  | 1.9 µg/mL (≈ 3.26 µM) | 58.4 µg/mL (≈ 100 µM) | 170 °C | 9.3 µg/mL (≈ 15.9 µM) | 
CCN(CC)CCCCC(O)(CCc1cccc2ccccc12)C(c1ccccc1)c1cc2cc(Br)ccc2nc1OC (stereo not drawn) [Compound 72] |  |  |  | 2.02 µg/mL (≈ 3.16 µM) | 1.61 µg/mL (≈ 2.52 µM) | 138 °C | 2.55 µg/mL (≈ 3.99 µM) | 
COc1ccc2cc(C(O)(CCCCN(C)C)C(c3ccccc3)c3cc4cc(Br)ccc4nc3OC)ccc2c1 (single isomer, unassigned) [Compound 5] |  | 1.9 µg/mL (≈ 3.1 µM) | 1.9 µg/mL (≈ 3.1 µM) | 1.9 µg/mL (≈ 3.1 µM) | 2.4 µg/mL (≈ 3.91 µM) | 96 °C | 1.9 µg/mL (≈ 3.1 µM) | IC90 (μg/ml) BSU 43639 [8]: 1.9 µg/mL (≈ 3.1 µM); IC90 (μg/ml) LMO 49594 [9]: 1.9 µg/mL (≈ 3.1 µM); IC90 [2]: 1.5 µg/mL (≈ 2.44 µM)
